In ChEMBL document CHEMBL1136900, “Discovery of aminoheterocycles as a novel beta-secretase inhibitor class: pH dependence on binding activity part 1” (Bioorg Med Chem Lett, 2009):

How the values were obtained:
[1] = Dissociation constant, pKa of the compound; format: physicochemical
[2] = Drug level in mouse brain at 20 mg/kg, iv after 30 mins; format: ADME, organism-based; design: dose 20 mg/kg, route intravenous; conditions: read-out: Drug uptake
[3] = Ratio of drug level in brain to plasma in mouse at 20 mg/kg, iv after 30 mins; format: ADME, organism-based; design: dose 20 mg/kg, route intravenous; conditions: brain and plasma, read-out: BPR

| SMILES | pKa [1] | concentration at 0.5 h [2] [µM] | Kp at 0.5 h [3] |
| --- | --- | --- | --- |
| COc1ccc(C(Cc2cc([N+](=O)[O-])ccc2OC)c2csc(N)n2)cc1 (stereo not given) | 5.5 |  |  |
| Nc1nc(C2(c3ccc(Cl)cc3)CCCC2)cs1 |  | 15 | 3.9 |
| COc1ccc(C(Cc2cc([N+](=O)[O-])ccc2OC)c2c[nH]c(N)n2)cc1 (stereo not given) | 8.1 |  |  |
| COc1ccc(C(Cc2cc([N+](=O)[O-])ccc2OC)c2cn(C)c(N)n2)cc1 (stereo not given) | 8.3 |  |  |
